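A five-concentration, 48-hour dose response in 96-well plates underlies each endpoint, interpolated linearly between surrounding concentrations. Abbreviation: GI50, concentration required for 50% inhibition of growth.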 Activity calls are given as the source filed them. Rule as the data show it: active = GI50 up to about 1.1 µM and inactive = higher.

Test systems include MOLT-4; DU-145; KM12; UACC-257; SF-539; OVCAR-8; MDA-MB-231; SK-MEL-2; HT-29; COLO 205; LOX IMVI; SF-295; RXF 393; NCI-H23; HCT-15; SNB-75; K562; UACC-62; ACHN; A498.
Holding throughout (assay): DTP human tumour cell line panel, 48 h

For orientation: GI50 means the concentration giving 50% growth inhibition. As for `C=CCN1C(=O)/C(=C/c2ccccc2)NC1=S`, the GI50 with MOLT-4 was 61.7 µM (inactive); in the assay on DU-145, > 100 µM (inactive); with KM12, > 100 µM (inactive); with UACC-257 it was 74.1 µM (inactive); with SF-539, > 100 µM (inactive); with OVCAR-8, > 100 µM (inactive). Moreover, the GI50 in the assay on MDA-MB-231, with SK-MEL-2, with HT-29, in the assay with COLO 205, in the assay with LOX IMVI and with SF-295 was > 100 µM (inactive) in each case. Also, the GI50 in the assay on RXF 393 was > 100 µM (inactive); in the assay with NCI-H23, > 100 µM (inactive); with HCT-15 it was greater than 100 µM; in the assay with SNB-75 it was > 100 µM (inactive); in the assay on K562, 84.5 µM (inactive); with UACC-62, > 100 µM (inactive). The figures for the GI50 in the assay on ACHN and in the assay with A498 were > 100 µM (inactive) and 38.3 µM (inactive), respectively.
For the compound `COC(=O)c1ccccc1C1CN=NC12Cc1cc(C)cc(C)c1C2=O` (stereo not given), the GI50 was 32.1 µM (inactive) in the assay with MOLT-4; > 100 µM (inactive) in the assay on DU-145; 29.9 µM (inactive) in the assay on KM12; 34 µM (inactive) with UACC-257; > 100 µM (inactive) in the assay on SF-539; > 100 µM (inactive) in the assay with OVCAR-8. For the same compound, the GI50 with MDA-MB-231 is 14.4 µM (inactive); in the assay with SK-MEL-2 it was > 100 µM (inactive); in the assay with HT-29, 23.4 µM (inactive); in the assay with COLO 205, 30.5 µM (inactive); with LOX IMVI, 20 µM (inactive); in the assay with SF-295, 48.6 µM (inactive). Besides, the GI50 was > 100 µM (inactive) in the assay on RXF 393; 15.1 µM (inactive) in the assay with NCI-H23; 17.3 µM in the assay on HCT-15; 23.1 µM (inactive) in the assay on SNB-75; 40.5 µM (inactive) with K562; 75.5 µM (inactive) in the assay with UACC-62. In addition, the GI50 was 88.7 µM (inactive) in the assay with ACHN and 2.9 µM (inactive) with A498.
On to `Cc1cc2c(c(/C=N/c3ccc(N(C)C)cc3)c1)OC1(C=C2)Oc2ccccc2C(=O)N1C` (stereo not given), for which the GI50 in the assay on MOLT-4 was 1.75 µM (inactive); with DU-145, 14 µM (inactive); with KM12, 15.5 µM (inactive); in the assay on UACC-257 it was 14.7 µM (inactive); in the assay with SF-539 it was 10 µM (inactive); in the assay on OVCAR-8, 14.2 µM (inactive). In addition, the GI50 in the assay with MDA-MB-231 is 3.53 µM (inactive); in the assay on SK-MEL-2 it was > 39.2 µM (inactive); in the assay with HT-29, 23.1 µM (inactive); in the assay with COLO 205, 17.5 µM (inactive); in the assay with LOX IMVI, 13 µM (inactive); in the assay on SF-295 it was 21.2 µM (inactive). In addition, the GI50 with RXF 393 is 11.7 µM (inactive); with NCI-H23 it was 12.5 µM (inactive); in the assay on HCT-15 it was 8.34 µM; in the assay on SNB-75, 18 µM (inactive); in the assay on K562, 4.97 µM (inactive); in the assay on UACC-62, 13.1 µM (inactive). In addition, the figures for the GI50 in the assay on ACHN and with A498 were 12.2 µM (inactive) and 19.7 µM (inactive), respectively.
For the compound `COC(=O)[C@@H]1C=C[C@H](OC2OC(COC(C)=O)C(OC(C)=O)C(OC(C)=O)C2OC(C)=O)n2c(=O)n(-c3ccccc3)c(=O)n21` (stereo not given in full), the GI50 was 2.13 µM (inactive) in the assay on MOLT-4; 4.75 µM (inactive) in the assay with DU-145; 5.5 µM (inactive) in the assay with KM12; 2.13 µM (inactive) in the assay on UACC-257; 2.74 µM (inactive) with SF-539; 2.55 µM (inactive) in the assay on OVCAR-8. Moreover, the GI50 is 2.7 µM (inactive) in the assay on MDA-MB-231; 2.25 µM (inactive) with SK-MEL-2; 1.88 µM (inactive) in the assay with HT-29; 1.85 µM (inactive) with COLO 205; 1.56 µM (inactive) in the assay on LOX IMVI; 10.8 µM (inactive) in the assay with SF-295. For the same compound, the GI50 with RXF 393 was 1.95 µM (inactive); in the assay on NCI-H23, 5.3 µM (inactive); with HCT-15 it was 1.84 µM; with SNB-75, 4.06 µM (inactive); with K562 it was 1.61 µM (inactive); in the assay on UACC-62, 3.1 µM (inactive). Besides, the GI50 in the assay on ACHN is 1.72 µM (inactive); with A498, 7.46 µM (inactive).
For `Nc1nc2c(c(=O)[nH]1)N=C(COP(=O)(O)OP(=O)(O)O)CN2`, the GI50 with MOLT-4, with DU-145, in the assay on KM12, in the assay on UACC-257, in the assay with SF-539 and in the assay on OVCAR-8 was > 100 µM (inactive) throughout. In addition, the GI50 in the assay on MDA-MB-231, in the assay with SK-MEL-2, in the assay with HT-29, in the assay on COLO 205, in the assay on LOX IMVI and in the assay with SF-295 was > 100 µM (inactive) each time. The GI50 is > 100 µM (inactive) with RXF 393; > 100 µM (inactive) in the assay on NCI-H23; greater than 100 µM in the assay with HCT-15; > 100 µM (inactive) in the assay on SNB-75; > 100 µM (inactive) in the assay with K562; > 100 µM (inactive) in the assay on UACC-62. Further, the GI50 in the assay on ACHN and in the assay on A498 was > 100 µM (inactive) throughout.
Regarding `O=C(CCCCCCCCC(=O)NN1C(=O)/C(=C\c2ccc(O)c(O)c2)SC1c1ccc(Cl)cc1)NN1C(=O)/C(=C\c2ccc(O)c(O)c2)SC1c1ccc(Cl)cc1` (stereo not given), the GI50 was 1.82 µM (inactive) in the assay on MOLT-4; 19.9 µM (inactive) with DU-145; 23.8 µM (inactive) in the assay on KM12; 34 µM (inactive) in the assay on UACC-257; 13.4 µM (inactive) in the assay on SF-539; 10.7 µM (inactive) in the assay on OVCAR-8. For the same compound, the GI50 in the assay on MDA-MB-231 was 35.6 µM (inactive); with SK-MEL-2, 20.4 µM (inactive); in the assay with HT-29 it was 57.7 µM (inactive); in the assay on COLO 205, 24.8 µM (inactive); in the assay on LOX IMVI it was 13.6 µM (inactive); with SF-295 it was 16.2 µM (inactive). In addition, the GI50 was 15.8 µM (inactive) with RXF 393; 15.5 µM (inactive) with NCI-H23; 13.4 µM in the assay with HCT-15; 29.9 µM (inactive) in the assay with SNB-75; 21.6 µM (inactive) in the assay on K562; 14.2 µM (inactive) in the assay with UACC-62. The GI50 in the assay with ACHN was 18.3 µM (inactive); with A498, 19.8 µM (inactive).
For `O=C1c2cc([N+](=O)[O-])sc2C(=O)c2c([N+](=O)[O-])csc21`, the 50% growth inhibitory concentration (GI50) is 0.229 µM (active) in the assay with MOLT-4; 1.7 µM (inactive) with DU-145; 1.24 µM (inactive) with KM12; 0.386 µM (active) with UACC-257; 0.349 µM (active) in the assay on SF-539; 0.785 µM (active) in the assay with OVCAR-8. Also, the GI50 in the assay with MDA-MB-231 was 0.551 µM (active); with SK-MEL-2 it was 1.53 µM (inactive); with HT-29, 1.17 µM (inactive); with COLO 205, 0.925 µM (active); in the assay with LOX IMVI it was 0.112 µM (active); in the assay on SF-295, 0.968 µM (active). For the same compound, the GI50 with RXF 393 is 0.706 µM (active); in the assay on NCI-H23, 0.711 µM (active); with HCT-15, 0.482 µM; in the assay on SNB-75, 1.77 µM (inactive); in the assay with K562, 0.116 µM (active); in the assay with UACC-62, 0.378 µM (active). Besides, the concentration for 50% growth inhibition (GI50) in the assay on ACHN was 0.324 µM (active); with A498, 1.92 µM (inactive).
For `CCOC(=O)CC[C@H](NC(=O)c1ccc(CNc2nc3cc(C(F)(F)F)ccc3nc2C(=O)OCC)cc1)C(=O)OCC`, the GI50 was > 100 µM (inactive) in the assay with MOLT-4; > 81.8 µM (inactive) in the assay with DU-145; 52.2 µM (inactive) in the assay with KM12; 42.8 µM (inactive) in the assay with UACC-257; 4.59 µM (inactive) in the assay on SF-539; 9.42 µM (inactive) in the assay on OVCAR-8. Moreover, the GI50 in the assay on MDA-MB-231 was 13.3 µM (inactive); with SK-MEL-2, > 48.2 µM (inactive); in the assay on HT-29 it was > 100 µM (inactive); in the assay with COLO 205, > 100 µM (inactive); in the assay on LOX IMVI, > 100 µM (inactive); in the assay on SF-295 it was 8.34 µM (inactive). For the same compound, the GI50 with RXF 393 was 27.7 µM (inactive); with NCI-H23, 26.1 µM (inactive); with HCT-15, 76.2 µM; in the assay with SNB-75 it was 12.8 µM (inactive); with K562 it was 70.3 µM (inactive); in the assay on UACC-62 it was 16.1 µM (inactive). Moreover, the GI50 with ACHN was 33.8 µM (inactive); in the assay on A498 it was > 100 µM (inactive).
Take `CC(=O)c1csc2c1C(=O)c1scc(C(C)=O)c1C2=O`: the GI50 was 0.347 µM (active) in the assay with MOLT-4; 1.87 µM (inactive) in the assay with DU-145; 1.73 µM (inactive) in the assay with KM12; 0.942 µM (active) with UACC-257; 1.82 µM (inactive) in the assay with SF-539; 1.54 µM (inactive) in the assay on OVCAR-8. Moreover, the concentration for 50% growth inhibition (GI50) in the assay on MDA-MB-231 is 0.348 µM (active); with SK-MEL-2, 1.89 µM (inactive); in the assay with HT-29 it was 2.28 µM (inactive); in the assay on COLO 205, 1.97 µM (inactive); in the assay with LOX IMVI it was 1.41 µM (inactive); with SF-295, 1.66 µM (inactive). Also, the GI50 in the assay with RXF 393 was 2.13 µM (inactive); in the assay with NCI-H23, 1.37 µM (inactive); in the assay on HCT-15 it was 1.62 µM; with SNB-75, 2.03 µM (inactive); in the assay on K562, 0.74 µM (active); in the assay with UACC-62, 1.98 µM (inactive). The GI50 in the assay with ACHN is 1.68 µM (inactive); with A498, 1.54 µM (inactive).
On to `C=CCc1cc(C=C(C#N)C#N)cc(OC)c1O`, for which the GI50 with MOLT-4 was 40 µM (inactive); in the assay on DU-145, > 100 µM (inactive); with KM12, > 100 µM (inactive); in the assay with UACC-257, > 100 µM (inactive); in the assay on SF-539, > 100 µM (inactive); in the assay with OVCAR-8 it was > 100 µM (inactive). In addition, the GI50 is > 100 µM (inactive) in the assay on MDA-MB-231; > 100 µM (inactive) in the assay with SK-MEL-2; > 100 µM (inactive) in the assay on HT-29; 52.6 µM (inactive) in the assay on COLO 205; 50.2 µM (inactive) in the assay on LOX IMVI; > 100 µM (inactive) in the assay with SF-295. For the same compound, the GI50 with RXF 393 is 24.8 µM (inactive); in the assay on NCI-H23 it was 79.8 µM (inactive); with HCT-15, 67.6 µM; in the assay on SNB-75, 55.5 µM (inactive); with K562 it was 62.2 µM (inactive); in the assay on UACC-62 it was 94.2 µM (inactive). In addition, the GI50 with ACHN and in the assay on A498 was > 100 µM (inactive) throughout.

The values are drawn from ChEMBL document CHEMBL1201862, “PubChem BioAssay data set” (2004).
